Reference: patent US9113629B2, “4-amino-6-(4-substituted-phenyl)-picolinates and 6-amino-2-(4-substituted-phenyl)-pyrimidine-4-carboxylates and their use as herbicides” (DOW AGROSCIENCES LLC, priority 2013, dated 2015)
Where two headings read alike, the source gives them in different places.

Columns and labels:
[1] = tested on: Key Broadleaf Weed and Crop Species; experiment: Post-emergent Test II herbicidal activity (Table 5); type: in vivo; details: post-emergence, 336 h, post-emergent, 14 days after application; for pest or weed control at 70 g/ha: application rate 70 g ai/ha; for pest or weed control at 140 g/ha: application rate 140 g ai/ha
Method in brief: (§1)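 Visual injury ratings (0 = no injury, 100 = complete kill) were taken 14 d after treatment, relative to untreated plants. Seedlings at the first–second true leaf stage received overhead spray at 187 L/ha; the highest rate was serially diluted to ½×, ¼×, ⅛× and 1/16×.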

[2] = tested on: Key Grass and Sedge Weeds as well as Grass Crops; experiment: Post-emergent Test II herbicidal activity (Table 6); type: in vivo; details: post-emergence, 336 h; for pest or weed control at 70 g/ha: application rate 70 g ai/ha; for pest or weed control at 140 g/ha: application rate 140 g ai/ha
Method in brief: as §1

[3] = ABUTH: velvetleaf (Abutilon theophrasti), read-out: Visual Growth Reduction (%) 14 Days After Application, ABUTH
[4] = AMARE: redroot pigweed (Amaranthus retroflexus), read-out: Visual Growth Reduction (%) 14 Days After Application, AMARE
[5] = BRSNN: oilseed-rape, canola (Brassica napus), read-out: Visual Growth Reduction (%) 14 Days After Application, BRSNN
[6] = CHEAL: lambsquarters (Chenopodium album), read-out: Visual Growth Reduction (%) 14 Days After Application, CHEAL
[7] = EPHHL: wild poinsettia (Euphorbia heterophylla), read-out: Visual Growth Reduction (%) 14 Days After Application, EPHHL
[8] = HELAN: sunflower (Helianthus annuus), read-out: Visual Growth Reduction (%) 14 Days After Application, HELAN
[9] = VIOTR: wild pansy (Viola tricolor), read-out: Visual Growth Reduction (%) 14 Days After Application, VIOTR
[10] = CYPES: yellow nutsedge (Cyperus esculentus), read-out: Visual Growth Reduction (%) 14 Days After Application, CYPES
[11] = DIGSA: crabgrass (Digitaria sanguinalis), read-out: Visual Growth Reduction (%) 14 Days After Application, DIGSA
[12] = ECHCG: barnyardgrass (Echinochloa crus-galli), read-out: Visual Growth Reduction (%) 14 Days After Application, ECHCG
[13] = ORYSA: rice (Oryza sativa), read-out: Visual Growth Reduction (%) 14 Days After Application, ORYSA
[14] = SETFA: giant foxtail (Setaria faberi), read-out: Visual Growth Reduction (%) 14 Days After Application, SETFA
[15] = SORVU: grain sorghum (Sorghum vulgare), read-out: Visual Growth Reduction (%) 14 Days After Application, SORVU
[16] = TRZSS (wheat, Triticum aestivum), read-out: Visual Growth Reduction (%) 14 Days After Application, TRZSS
[17] = ZEAMX: maize, corn (Zea mays), read-out: Visual Growth Reduction (%) 14 Days After Application, ZEAMX

Row | Compound | pest or weed control at 70 g/ha [1, 3] [%] | pest or weed control at 140 g/ha [1, 3] [%] | pest or weed control at 70 g/ha [1, 4] [%] | pest or weed control at 140 g/ha [1, 4] [%] | pest or weed control at 70 g/ha [1, 5] [%] | pest or weed control at 140 g/ha [1, 5] [%] | pest or weed control at 70 g/ha [1, 6] [%] | pest or weed control at 140 g/ha [1, 6] [%] | pest or weed control at 70 g/ha [1, 7] [%] | pest or weed control at 140 g/ha [1, 7] [%] | pest or weed control at 70 g/ha [1, 8] [%] | pest or weed control at 140 g/ha [1, 8] [%] | pest or weed control at 70 g/ha [1, 9] [%] | pest or weed control at 140 g/ha [1, 9] [%] | pest or weed control at 70 g/ha [2, 10] [%] | pest or weed control at 140 g/ha [2, 10] [%] | pest or weed control at 70 g/ha [2, 11] [%] | pest or weed control at 140 g/ha [2, 11] [%] | pest or weed control at 70 g/ha [2, 12] [%] | pest or weed control at 140 g/ha [2, 12] [%] | also measured
1 | Nc1c(F)c(-c2cc(F)c(C(F)F)cc2F)nc(C(=O)O)c1Cl [Compound 178] | 75 to 84 | 75 to 84 | 95 to 100 | 95 to 100 | 95 to 100 | 95 to 100 | 95 to 100 | 95 to 100 | 85 to 94 | 95 to 100 | 95 to 100 | 95 to 100 | 30 to 44 | 45 to 59 | 85 to 94 | 85 to 94 | 0 to 29 | 45 to 59 | 60 to 74 | 85 to 94 | pest or weed control at 70 g/ha [2, 13]: 0 to 29%; pest or weed control at 140 g/ha [2, 13]: 0 to 29%; pest or weed control at 70 g/ha [2, 14]: 85 to 94%; pest or weed control at 140 g/ha [2, 14]: 85 to 94%; pest or weed control at 70 g/ha [2, 15]: 45 to 59%; pest or weed control at 140 g/ha [2, 15]: 60 to 74%; pest or weed control at 70 g/ha [2, 16]: 30 to 44%; pest or weed control at 140 g/ha [2, 16]: 45 to 59%; pest or weed control at 70 g/ha [2, 17]: 0 to 29%; pest or weed control at 140 g/ha [2, 17]: 30 to 44%; melting point: 86.1 to 88.4 °C
2 | COC(=O)c1nc(-c2cc(F)c(C)cc2F)c(F)c(N)c1Cl [Compound 184] | 95 to 100 | 95 to 100 | 85 to 94 | 95 to 100 | 85 to 94 | 95 to 100 | 85 to 94 | 95 to 100 | 85 to 94 | 95 to 100 | 95 to 100 | 95 to 100 | 0 to 29 | 0 to 29 | 0 to 29 | 0 to 29 | 0 to 29 | 0 to 29 | 45 to 59 | 60 to 74 | pest or weed control at 70 g/ha [2, 13]: 0 to 29%; pest or weed control at 140 g/ha [2, 13]: 0 to 29%; pest or weed control at 70 g/ha [2, 14]: 0 to 29%; pest or weed control at 140 g/ha [2, 14]: 0 to 29%; pest or weed control at 70 g/ha [2, 15]: 0 to 29%; pest or weed control at 140 g/ha [2, 15]: 30 to 44%; pest or weed control at 70 g/ha [2, 16]: 0 to 29%; pest or weed control at 140 g/ha [2, 16]: 0 to 29%; pest or weed control at 70 g/ha [2, 17]: 0 to 29%; pest or weed control at 140 g/ha [2, 17]: 0 to 29%; melting point: 116.5 to 118.8 °C
3 | COC(=O)c1nc(-c2cc(F)c(C)cc2F)nc(N)c1OC [Compound 185] | 30 to 44 | 45 to 59 | 0 to 29 | 0 to 29 | 30 to 44 | 45 to 59 | 60 to 74 | 95 to 100 | 75 to 84 | 85 to 94 | 75 to 84 | 85 to 94 | 0 to 29 | 0 to 29 | 0 to 29 | 0 to 29 | 0 to 29 | 0 to 29 | 0 to 29 | 0 to 29 | pest or weed control at 70 g/ha [2, 13]: 0 to 29%; pest or weed control at 140 g/ha [2, 13]: 0 to 29%; pest or weed control at 70 g/ha [2, 14]: 0 to 29%; pest or weed control at 140 g/ha [2, 14]: 0 to 29%; pest or weed control at 70 g/ha [2, 15]: 0 to 29%; pest or weed control at 140 g/ha [2, 15]: 0 to 29%; pest or weed control at 70 g/ha [2, 16]: 0 to 29%; pest or weed control at 140 g/ha [2, 16]: 0 to 29%; pest or weed control at 70 g/ha [2, 17]: 0 to 29%; pest or weed control at 140 g/ha [2, 17]: 0 to 29%; melting point: 163.4 to 164.8 °C
